Format in all cases: biochemical
In assay [1] the target is JAK2 (Homo sapiens (Human), UniProt O60674). The assay is described as follows: In vitro JAK kinase assay (TR-FRET), JAK2. Conditions: catalytic domain aa 826-1132, GST-fusion; ATP 0.2 μM; peptide 20 nM; 30 minutes at room temperature. Here is the method:
(§1) Compounds were screened for their ability to inhibit JAK1, JAK2 and JAK3 using the assays as indicated below. […] The enzymatic activity was assayed using as substrate a biotinylated peptide, poly (GT)-Biotin (CisBio). […] The degree of phosphorylation was detected by TR-FRET (time-resolved fluorescence energy transfer). […] The enzymatic reactions took place for 30 minutes at room temperature. […] Incubate for 3 h and read on Victor 2V spectrofluorometer (Perkin Elmer) set to read fluorescence resonance energy transfer.

In assay [2] the target is JAK3 (Homo sapiens (Human), UniProt P52333). The assay is described as follows: In vitro JAK kinase assay (TR-FRET), JAK3. Conditions: catalytic domain aa 795-1124, GST-fusion; ATP 0.6 μM; peptide 140 nM; 30 minutes at room temperature. On the procedure: as §1
Chain of JAK3 (P52333 795-1124): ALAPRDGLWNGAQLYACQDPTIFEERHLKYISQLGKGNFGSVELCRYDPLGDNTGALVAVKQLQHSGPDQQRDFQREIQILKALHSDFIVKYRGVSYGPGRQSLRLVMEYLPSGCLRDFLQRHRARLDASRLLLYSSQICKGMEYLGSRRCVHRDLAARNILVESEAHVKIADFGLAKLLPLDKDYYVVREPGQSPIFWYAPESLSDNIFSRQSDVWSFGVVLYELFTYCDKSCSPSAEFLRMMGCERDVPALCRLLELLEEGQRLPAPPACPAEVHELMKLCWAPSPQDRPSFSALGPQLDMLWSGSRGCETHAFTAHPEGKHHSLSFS
Assay [3] addresses JAK1 (Homo sapiens (Human), UniProt P23458). The assay is described as follows: In vitro JAK kinase assay (TR-FRET), JAK1. The settings on record: catalytic domain aa 850-1154, GST-fusion; ATP 3 μM; peptide 60 nM; 30 minutes at room temperature. On the procedure: as §1

Chain of JAK2 (O60674 826-1132): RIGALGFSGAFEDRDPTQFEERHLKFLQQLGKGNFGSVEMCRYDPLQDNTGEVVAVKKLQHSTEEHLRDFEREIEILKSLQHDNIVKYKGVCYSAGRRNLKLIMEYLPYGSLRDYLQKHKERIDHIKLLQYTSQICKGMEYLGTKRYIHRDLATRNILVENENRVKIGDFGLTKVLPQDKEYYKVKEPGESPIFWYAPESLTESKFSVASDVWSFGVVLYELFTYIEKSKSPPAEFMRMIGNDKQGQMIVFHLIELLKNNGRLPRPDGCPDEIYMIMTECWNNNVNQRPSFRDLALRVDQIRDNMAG
Chain of JAK1 (P23458 850-1154): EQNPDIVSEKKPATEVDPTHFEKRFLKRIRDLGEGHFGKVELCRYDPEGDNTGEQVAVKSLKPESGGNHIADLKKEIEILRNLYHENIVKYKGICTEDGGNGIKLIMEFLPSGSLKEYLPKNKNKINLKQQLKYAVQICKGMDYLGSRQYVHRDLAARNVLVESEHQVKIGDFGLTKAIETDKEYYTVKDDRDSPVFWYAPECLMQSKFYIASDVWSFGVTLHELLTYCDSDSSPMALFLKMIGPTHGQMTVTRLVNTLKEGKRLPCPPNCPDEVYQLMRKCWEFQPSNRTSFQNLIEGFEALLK

Take `O=C(CO)N1CCC[C@@H](Nc2nc(-c3cnn4ccccc34)nc(OCCO)c2F)C1` [Example 40, 2-((3R)-3-{[5-Fluoro-6-(2-hydroxyethoxy)-2-pyrazolo[1,5-a]pyridin-3-ylpyrimidin-4-yl]amino}piperidin-1-yl)-2-oxoethanol]: the values for the IC50 in assay [1], in assay [2] and in assay [3] were 0.8 nM, 2 nM and 4 nM, respectively.
As to `O=C(CO)N1CCC[C@@H](Nc2nc(-c3cnn4ccccc34)nc(OCCCO)c2F)C1` [Example 41, 3-[(5-Fluoro-6-{[(3R)-1-glycoloylpiperidin-3-yl]amino}-2-pyrazolo[1,5-a]pyridin-3-ylpyrimidin-4-yl)oxy]propan-1-ol], the IC50 stood at 1 nM in assay [1], 3 nM in assay [2] and 8 nM in assay [3].
For `COc1nc(-c2cnn3ccccc23)nc(N[C@@H]2CCCN(C(=O)CO)C2)c1F` [Example 42, 2-{(3R)-3-[(5-Fluoro-6-methoxy-2-pyrazolo[1,5-a]pyridin-3-ylpyrimidin-4-yl)amino]piperidin-1-yl}-2-oxoethanol] the same measures were 1 nM, 1 nM and 13 nM.
For `O=C(CO)N1CCC[C@@H](Nc2nc(-c3cnn4ccccc34)nc(O)c2F)C1` [Example 43, 5-Fluoro-6-{[(3R)-1-glycoloylpiperidin-3-yl]amino}-2-pyrazolo[1,5-a]pyridin-3-ylpyrimidin-4-ol] the same measures were 0.7 nM, 1 nM and 4 nM.
For `O=C(COc1nc(-c2cnn3ccccc23)nc(N[C@@H]2CCCN(C(=O)CO)C2)c1F)OCc1ccccc1` [Example 44, Benzyl[(5-fluoro-6-{[(3R)-1-glycoloylpiperidin-3-yl]amino}-2-pyrazolo[1,5-a]pyridin-3-ylpyrimidin-4-yl)oxy]acetate] the same measures were 74 nM, 140 nM and 970 nM.
For the compound `CCOc1nc(-c2cnn3ccccc23)nc(N[C@@H]2CCCN(C(=O)CO)C2)c1F` [Example 45, 2-{(3R)-3-[(6-Ethoxy-5-fluoro-2-pyrazolo[1,5-a]pyridin-3-ylpyrimidin-4-yl)amino]piperidin-1-yl}-2-oxoethanol], the figures for the IC50 in assay [1], in assay [2] and in assay [3] were 1 nM, 3 nM and 4 nM, respectively.
For `CCOC(=O)c1nc(-c2cnn3ccccc23)nc(N[C@@H]2CCCN(C(=O)CO)C2)c1F` [Example 46, Ethyl 5-fluoro-6-{[(3R)-1-glycoloylpiperidin-3-yl]amino}-2-pyrazolo[1,5-a]pyridin-3-ylpyrimidine-4-carboxylate] the same measures were 3 nM, 4 nM and 10 nM.
For `N#Cc1nc(-c2cnn3ccccc23)nc(N[C@@H]2CCCN(C(=O)CO)C2)c1F` [Example 47, 5-Fluoro-6-{[(3R)-1-glycoloylpiperidin-3-yl]amino}-2-pyrazolo[1,5-a]pyridin-3-ylpyrimidine-4-carbonitrile] the same measures were 4 nM, 12 nM and 10 nM.
For `O=C(CO)N1CCC[C@@H](Nc2nc(-c3cnn4ccccc34)nc(OCC(F)(F)F)c2F)C1` [Example 49, 2-((3R)-3-{[5-Fluoro-2-pyrazolo[1,5-a]pyridin-3-yl-6-(2,2,2-trifluoroethoxy)pyrimidin-4-yl]amino}piperidin-1-yl)-2-oxoethanol] the same measures were 10 nM, 14 nM and 35 nM.
In the case of `O=C(CO)N1CCC[C@@H](Nc2nc(-c3cnn4ccccc34)nc(OCC(F)F)c2F)C1` [Example 50, 2-((3R)-3-{[6-(2,2-Difluoroethoxy)-5-fluoro-2-pyrazolo[1,5-a]pyridin-3-ylpyrimidin-4-yl]amino}piperidin-1-yl)-2-oxoethanol], the IC50 was 3 nM in assay [1], 9 nM in assay [2] and 15 nM in assay [3].
For `CC(C)Oc1nc(-c2cnn3ccccc23)nc(N[C@@H]2CCCN(C(=O)CO)C2)c1F` [Example 51, 2-{(3R)-3-[(5-Fluoro-6-isopropoxy-2-pyrazolo[1,5-a]pyridin-3-ylpyrimidin-4-yl)amino]piperidin-1-yl}-2-oxoethanol] the same measures were 2 nM, 3 nM and 36 nM.
For `O=C(CO)N1CCC[C@@H](Oc2nc(-c3cnn4ccccc34)nc(N3CCOCC3)c2F)C1` [Example 52, 2-{(3R)-3-[(5-Fluoro-6-morpholin-4-yl-2-pyrazolo[1,5-a]pyridin-3-ylpyrimidin-4-yl)oxy]piperidin-1-yl}-2-oxoethanol] the same measures were 1 nM, 11 nM and 11 nM.
As for `N#CCC(=O)N1CCC[C@@H](Oc2nc(-c3cnn4ccccc34)nc(N3CCOCC3)c2F)C1` [Example 53, 3-{(3R)-3-[(5-fluoro-6-morpholin-4-yl-2-pyrazolo[1,5-a]pyridin-3-ylpyrimidin-4-yl)oxy]piperidin-1-yl}-3-oxopropanenitrile], the IC50 was found to be 0.5 nM in assay [1], 3 nM in assay [2] and 2 nM in assay [3].
In the case of `COc1nc(-c2cnn3ccccc23)nc(N[C@@H]2CCCN(c3cnc(C#N)cn3)C2)c1F` [Example 56, 5-{(3R)-3-[(5-fluoro-6-methoxy-2-pyrazolo[1,5-a]pyridin-3-ylpyrimidin-4-yl)amino]piperidin-1-yl}pyrazine-2-carbonitrile], the half-inhibitory concentration (IC50) stood at 7 nM in assay [1], 8 nM in assay [2] and 43 nM in assay [3].
For `N#Cc1cnc(N2CCC[C@@H](Nc3nc(-c4cnn5ccccc45)nc(OCCO)c3F)C2)nc1` [Example 57, 2-((3R)-3-{[5-fluoro-6-(2-hydroxyethoxy)-2-pyrazolo[1,5-a]pyridin-3-ylpyrimidin-4-yl]amino}piperidin-1-yl)pyrimidine-5-carbonitrile] the same measures were 2 nM, 2 nM and 19 nM.
For `COC[C@H](C)Oc1nc(-c2cnn3ccccc23)nc(N[C@@H]2CCCN(C(=O)CO)C2)c1F` [Example 58, 2-[(3R)-3-({5-Fluoro-6-[(1S)-2-methoxy-1-methylethoxy]-2-pyrazolo[1,5-a]pyridin-3-ylpyrimidin-4-yl}amino)piperidin-1-yl]-2-oxoethanol] the same measures were 2 nM, 7 nM and 66 nM.
For `C[C@@H](CO)Oc1nc(-c2cnn3ccccc23)nc(N[C@@H]2CCCN(C(=O)CO)C2)c1F` [Example 59, (2S)-2-[(5-Fluoro-6-{[(3R)-1-glycoloylpiperidin-3-yl]amino}-2-pyrazolo[1,5-a]pyridin-3-ylpyrimidin-4-yl)oxy]propan-1-ol] the same measures were 3 nM, 4 nM and 29 nM.
With `COC[C@@H](C)Oc1nc(-c2cnn3ccccc23)nc(N[C@@H]2CCCN(C(=O)CO)C2)c1F` [Example 60, 2-[(3R)-3-({5-Fluoro-6-[(1R)-2-methoxy-1-methylethoxy]-2-pyrazolo[1,5-a]pyridin-3-ylpyrimidin-4-yl}amino)piperidin-1-yl]-2-oxoethanol], the IC50 in assay [1] is 7 nM; in assay [2] it was 16 nM; in assay [3], 110 nM.
For `C[C@H](CO)Oc1nc(-c2cnn3ccccc23)nc(N[C@@H]2CCCN(C(=O)CO)C2)c1F` [Example 61, (2R)-2-[(5-Fluoro-6-{[(3R)-1-glycoloylpiperidin-3-yl]amino}-2-pyrazolo[1,5-a]pyridin-3-ylpyrimidin-4-yl)oxy]propan-1-ol] the same measures were 10 nM, 8 nM and 58 nM.
As for `O=C(CO)N1CCC[C@@H](Nc2nc(-c3cnn4ccccc34)nc(-c3cccnc3)c2F)C1` [Example 62, 2-{(3R)-3-[(5-Fluoro-2-pyrazolo[1,5-a]pyridin-3-yl-6-pyridin-3-ylpyrimidin-4-yl)amino]piperidin-1-yl}-2-oxoethanol], the IC50 in assay [1] worked out at 1 nM; in assay [2], 7 nM; in assay [3], 4 nM.
In the case of `COc1nc(-c2cnn3ccccc23)nc(O[C@@H]2CCCN(C(=O)CO)C2)c1F` [Example 63, 2-{(3R)-3-[(5-Fluoro-6-methoxy-2-pyrazolo[1,5-a]pyridin-3-ylpyrimidin-4-yl)oxy]piperidin-1-yl}-2-oxoethanol], the IC50 in assay [1] came to 3 nM; in assay [2] it was 9 nM; in assay [3] it was 127 nM.
For `COc1nc(-c2cnn3ccccc23)nc(O[C@@H]2CCCN(C(=O)CC#N)C2)c1F` [Example 64, 3-{(3R)-3-[(5-Fluoro-6-methoxy-2-pyrazolo[1,5-a]pyridin-3-ylpyrimidin-4-yl)oxy]piperidin-1-yl}-3-oxopropanenitrile] the same measures were 3 nM, 4 nM and 28 nM.
For `O=C(CO)N1CCC[C@@H](Oc2nc(-c3cnn4ccccc34)nc(OCCO)c2F)C1` [Example 65, 2-((3R)-3-{[5-Fluoro-6-(2-hydroxyethoxy)-2-pyrazolo[1,5-a]pyridin-3-ylpyrimidin-4-yl]oxy}piperidin-1-yl)-2-oxoethanol] the same measures were 2 nM, 9 nM and 38 nM.

(Values after patent publication US10759793B2, “2-(pyrazolopyridin-3-yl)pyrimidine derivatives as JAK inhibitors” (ALMIRALL, S.A., priority 2015, dated 2020).)
